Assay results: patent US12655116B2, “Substituted isophthalic acid diamides” (Bayer Aktiengesellschaft, priority 2020, dated 2026)

Tests used:
ABUTH [1] = assay: Pre-emergence herbicidal action against ABUTH; assay type: in vivo, Abutilon theophrasti; conditions: for Pre-emergence action against ABUTH (herbicidal activity): 80 g/ha, scored visually after 3 weeks vs untreated controls (100% = plants have died, 0% = like control plants)
Procedure, shortened: (§1)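 Visual rating at 3 weeks vs untreated pots; 0–100% scale, 100% = plants died. Treatment: aqueous WP/EC spray onto covering soil, 600–800 l/ha, 0.2% wetter, seeds in sandy loam.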

ALOMY [2] = assay: Pre-emergence herbicidal action against ALOMY; assay type: in vivo, Alopecurus myosuroides; conditions: 80 g/ha, pre-emergence, scored visually after 3 weeks vs untreated controls (100% = plants have died, 0% = like control plants)
Procedure, shortened: as §1

AMARE [3] = assay: Pre-emergence herbicidal action against AMARE; assay type: in vivo, Amaranthus retroflexus
Procedure, shortened: as §1

AVEFA = assay: Pre-emergence herbicidal action against AVEFA; assay type: in vivo, Avena fatua; conditions: 80 g/ha, pre-emergence
Procedure, shortened: as §1

ECHCG [4] = assay: Pre-emergence herbicidal action against ECHCG; assay type: in vivo, Echinochloa crus-galli; conditions: 80 g/ha
Procedure, shortened: as §1

MATIN [5] = assay: Pre-emergence herbicidal action against MATIN; assay type: in vivo, Matricaria inodora
Procedure, shortened: as §1

PHBPU [6] = assay: Pre-emergence herbicidal action against PHBPU; assay type: in vivo, Pharbitis purpurea; conditions: dosage 80 g/ha
Procedure, shortened: as §1

POLCO = assay: Pre-emergence herbicidal action against POLCO; assay type: in vivo, Polygonum convolvulus
Procedure, shortened: as §1

SETVI [7] = assay: Pre-emergence herbicidal action against SETVI; assay type: in vivo, Setaria viridis; conditions: dosage 80 g/ha
Procedure, shortened: as §1

VERPE [8] = assay: Pre-emergence herbicidal action against VERPE; assay type: in vivo, Veronica persica; conditions: dosage 80 g/ha
Procedure, shortened: as §1

VIOTR = assay: Pre-emergence herbicidal action against VIOTR; assay type: in vivo, Viola tricolor
Procedure, shortened: as §1

DIGSA [9] = assay: Pre-emergence herbicidal action against DIGSA; assay type: in vivo, Digitaria sanguinalis
Procedure, shortened: as §1

ABUTH [10] = assay: Post-emergence herbicidal action against ABUTH; assay type: in vivo, Abutilon theophrasti; conditions: visual assessment about 3 weeks after treatment vs untreated controls
Procedure, shortened: (§2)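 Weeds in sandy loam soil received a post-emergence spray at the one-leaf stage. Compounds were applied as WP or EC in water, 600 to 800 l/ha, with 0.2% wetting agent. Activity in % was judged visually after roughly 3 weeks against untreated plants.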

ALOMY [11] = assay: Post-emergence herbicidal action against ALOMY; assay type: in vivo, Alopecurus myosuroides; conditions: dosage 20 g/ha, visual assessment about 3 weeks after treatment vs untreated controls
Procedure, shortened: as §2

AMARE [12] = assay: Post-emergence herbicidal action against AMARE; assay type: in vivo, Amaranthus retroflexus; conditions: 20 g/ha, visual assessment about 3 weeks after treatment, 100% = plants have died, 0% = like control plants
Procedure, shortened: as §2

ECHCG [13] = assay: Post-emergence herbicidal action against ECHCG; assay type: in vivo, Echinochloa crus-galli; conditions: dosage 20 g/ha
Procedure, shortened: as §2

MATIN [14] = assay: Post-emergence herbicidal action against MATIN; assay type: in vivo, Matricaria inodora
Procedure, shortened: as §2

PHBPU [15] = assay: Post-emergence herbicidal action against PHBPU; assay type: in vivo, Pharbitis purpurea
Procedure, shortened: as §2

SETVI [16] = assay: Post-emergence herbicidal action against SETVI; assay type: in vivo, Setaria viridis; conditions: dosage 20 g/ha
Procedure, shortened: as §2

DIGSA [17] = assay: Post-emergence herbicidal action against DIGSA; assay type: in vivo, Digitaria sanguinalis
Procedure, shortened: as §2

VERPE [18] = assay: Post-emergence herbicidal action against VERPE; assay type: in vivo, Veronica persica; conditions: 20 g/ha
Procedure, shortened: as §2

[19] = 20 g/ha, scored visually after 3 weeks vs untreated controls, 100% = plants have died, 0% = like control plants
[20] = 80 g/ha, scored visually after 3 weeks vs untreated controls (100% = plants have died, 0% = like control plants)

SMILES	Pre-emergence action against ABUTH (herbicidal activity) (ABUTH [1]) [%]	Pre-emergence action against ALOMY (herbicidal activity) (ALOMY [2]) [%]	Pre-emergence action against AMARE in % (AMARE [3]; [19]) [%]	Pre-emergence action against AMARE in % (AMARE [3]; [20]) [%]	Pre-emergence action against MATIN in % (MATIN [5]; dosage 20 g/ha) [%]	Pre-emergence action against MATIN in % (MATIN [5]; dosage 80 g/ha) [%]	Pre-emergence action against PHBPU in % (PHBPU [6]) [%]	Pre-emergence action against POLCO in % (POLCO; dosage 80 g/ha) [%]	Pre-emergence action against SETVI in % (SETVI [7]) [%]	Pre-emergence action against VERPE in % (VERPE [8]) [%]	Pre-emergence action against VIOTR in % (VIOTR; dosage 20 g/ha) [%]	Pre-emergence action against VIOTR in % (VIOTR; dosage 80 g/ha) [%]	Pre-emergence action against DIGSA in % (DIGSA [9]; dosage 80 g/ha) [%]	Post-emergence action against ABUTH in % (ABUTH [10]; dosage 20 g/ha) [%]	Post-emergence action at 20 g/ha against AMARE in % (AMARE [12]) [%]	Post-emergence action against MATIN in % (MATIN [14]; dosage 5 g/ha) [%]	Post-emergence action against MATIN in % (MATIN [14]; dosage 20 g/ha) [%]	Post-emergence action against PHBPU in % (PHBPU [15]; dosage 5 g/ha) [%]	Post-emergence action against PHBPU in % (PHBPU [15]; dosage 20 g/ha) [%]	also measured
CCn1nnnc1NC(=O)c1ccc(C(F)F)c(C(=O)NCC(F)F)c1C [Example 2-49]	100	90	100	100	100	100	80	90	100	100	90	100	100	90	100	80	80	80	90	Pre-emergence action against ABUTH (herbicidal activity in percent) (ABUTH [1]; dosage 20 g/ha, scored visually after 3 weeks vs untreated controls, 100% = plants have died, 0% = like control plants): 100%; Pre-emergence action against AVEFA in % (AVEFA): 80%; Pre-emergence action against ECHCG in % (ECHCG [4]): 90%; Pre-emergence action against DIGSA in % (DIGSA [9]; dosage 20 g/ha): 100%; Post-emergence action against ABUTH in % (ABUTH [10]; dosage 5 g/ha): 90%; Post-emergence action against ALOMY in % (ALOMY [11]): 80%; Post-emergence action against ECHCG in % (ECHCG [13]): 90%; Post-emergence action against SETVI in % (SETVI [16]): 90%; Post-emergence action against DIGSA in % (DIGSA [17]; 5 g/ha): 90%; Post-emergence action against DIGSA (DIGSA [17]; 20 g/ha): 90%
CCn1nnnc1NC(=O)c1ccc(C(F)(F)F)c(C(=O)NC2CCC2)c1Cl [Example 2-146]	90	80	100	100	100	100	90	80	100	80	100	100	100	80	80	80	90	80	90	Pre-emergence action against POLCO in % (POLCO; dosage 20 g/ha): 80%; Post-emergence action against VERPE in % (VERPE [18]): 80%
